Source: PubChem BioAssay AID2060622 (Molecular Pharmacology Branch, DTP, NCI, 2025)
pIC50: −log10 of the molar value.

System: 242566-281-R-J2-PDC complex spheroid viability
Assay: Anticancer human tumor 242566-281-R-J2-PDC patient-derived pancreatic carcinoma cell line growth inhibition [CLK]
Conditions: for pIC50: curve of first compound; for viability, T/C: stronger effect = lower value
How it was run: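 Multi-cell-type spheroids combined patient-derived tumor cells with HUVEC endothelial cells and human mesenchymal stem cells. Paired agents were dosed in half-log steps down from about clinical Cmax, or from 10 microM where Cmax was unknown.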

[1] = second compound 0.0316 µM, first compound 0.0316 µM
[2] = second compound 0.0316 µM, first compound 0.1 µM
[3] = second compound 0.0316 µM, first compound 0.316 µM
[4] = second compound 0.0316 µM, first compound 1 µM
[5] = second compound 0.0316 µM, first compound 3.16 µM
[6] = second compound 0.0316 µM, first compound 10 µM
[7] = second compound 0.1 µM, first compound 0.0316 µM
[8] = second compound 0.1 µM, first compound 0.1 µM
[9] = second compound 0.1 µM, first compound 0.316 µM
[10] = second compound 0.1 µM, first compound 1 µM
[11] = second compound 0.1 µM, first compound 3.16 µM
[12] = second compound 0.1 µM, first compound 10 µM
[13] = second compound 0.316 µM, first compound 0.0316 µM
[14] = second compound 0.316 µM, first compound 0.1 µM
[15] = second compound 0.316 µM, first compound 0.316 µM
[16] = second compound 0.316 µM, first compound 1 µM
[17] = second compound 0.316 µM, first compound 3.16 µM
[18] = second compound 0.316 µM, first compound 10 µM
[19] = second compound 1 µM, first compound 0.0316 µM
[20] = second compound 1 µM, first compound 0.1 µM
[21] = second compound 1 µM, first compound 0.316 µM
[22] = second compound 1 µM, first compound 1 µM
[23] = second compound 1 µM, first compound 3.16 µM
[24] = second compound 1 µM, first compound 10 µM
[25] = second compound 3.16 µM, first compound 0.0316 µM
[26] = second compound 3.16 µM, first compound 0.1 µM
[27] = second compound 3.16 µM, first compound 0.316 µM
[28] = second compound 3.16 µM, first compound 1 µM
[29] = second compound 3.16 µM, first compound 3.16 µM
[30] = second compound 3.16 µM, first compound 10 µM
[31] = second compound 10 µM, first compound 0.0316 µM
[32] = second compound 10 µM, first compound 0.1 µM
[33] = second compound 10 µM, first compound 0.316 µM
[34] = second compound 10 µM, first compound 1 µM
[35] = second compound 10 µM, first compound 3.16 µM
[36] = second compound 10 µM, first compound 10 µM
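Also: spheroids exposed to compounds for 7 days before readout.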
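For viability, T/C in this document: 100% = DMSO vehicle control wells.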

## C#Cc1c(F)ccc2cc(O)cc(-c3ncc4c(N5CC6CCC(C5)N6)nc(OCC56CCCN5CC(F)C6)nc4c3F)c12 (stereo not given) + CNC(=O)c1ccc(Nc2nc(OC3CCCC3)c3c(-c4ccc5nc(C)oc5c4)c[nH]c3n2)c(OC)c1
Second compound 0.0316 µM
  pIC50: 5.37
Second compound 0.1 µM
  pIC50: 5.84
Second compound 0.316 µM
  pIC50: 6.36
Second compound 1 µM
  pIC50: > 7.50
Second compound 3.16 µM
  pIC50: > 7.50
Second compound 10 µM
  pIC50: > 7.50
[1]
  viability, T/C: 106%
[2]
  viability, T/C: 89.4%
[3]
  viability, T/C: 68.1%
[4]
  viability, T/C: 60.8%
[5]
  viability, T/C: 52.1%
[6]
  viability, T/C: 45.6%
[7]
  viability, T/C: 109%
[8]
  viability, T/C: 92.9%
[9]
  viability, T/C: 67.6%
[10]
  viability, T/C: 55.3%
[11]
  viability, T/C: 42.2%
[12]
  viability, T/C: 32.9%
[13]
  viability, T/C: 81.7%
[14]
  viability, T/C: 66.7%
[15]
  viability, T/C: 52.2%
[16]
  viability, T/C: 39.3%
[17]
  viability, T/C: 36.5%
[18]
  viability, T/C: 22.3%
[19]
  viability, T/C: 48.4%
[20]
  viability, T/C: 29%
[21]
  viability, T/C: 22.9%
[22]
  viability, T/C: 16.5%
[23]
  viability, T/C: 13.4%
[24]
  viability, T/C: 15.5%
[25]
  viability, T/C: 20.3%
[26]
  viability, T/C: 17.5%
[27]
  viability, T/C: 15.9%
[28]
  viability, T/C: 11.8%
[29]
  viability, T/C: 10.9%
[30]
  viability, T/C: 7.39%
[31]
  viability, T/C: 17.5%
[32]
  viability, T/C: 14.5%
[33]
  viability, T/C: 13.2%
[34]
  viability, T/C: 10.8%
[35]
  viability, T/C: 11.1%
[36]
  viability, T/C: 6.78%

## C=C(F)C(=O)N1CCN(c2nc(OCC3CCCN3C)nc3c2CCN(c2cccc4cccc(Cl)c24)C3)CC1CC#N (stereo not given) + CNC(=O)c1ccc(Nc2nc(OC3CCCC3)c3c(-c4ccc5nc(C)oc5c4)c[nH]c3n2)c(OC)c1
Second compound 0.0316 µM
  pIC50: 5.24
Second compound 0.1 µM
  pIC50: 5.27
Second compound 0.316 µM
  pIC50: 5.30
Second compound 1 µM
  pIC50: 5.48
Second compound 3.16 µM
  pIC50: 5.95
Second compound 10 µM
  pIC50: 6.97
[1]
  viability, T/C: 95.6%
[2]
  viability, T/C: 101%
[3]
  viability, T/C: 108%
[4]
  viability, T/C: 101%
[5]
  viability, T/C: 119%
[6]
  viability, T/C: 0.23%
[7]
  viability, T/C: 108%
[8]
  viability, T/C: 78.5%
[9]
  viability, T/C: 83.4%
[10]
  viability, T/C: 105%
[11]
  viability, T/C: 94.4%
[12]
  viability, T/C: 0.19%
[13]
  viability, T/C: 82.2%
[14]
  viability, T/C: 76.3%
[15]
  viability, T/C: 69.7%
[16]
  viability, T/C: 88.6%
[17]
  viability, T/C: 95%
[18]
  viability, T/C: 0.63%
[19]
  viability, T/C: 73.3%
[20]
  viability, T/C: 64.4%
[21]
  viability, T/C: 65.5%
[22]
  viability, T/C: 65%
[23]
  viability, T/C: 52.7%
[24]
  viability, T/C: 0.17%
[25]
  viability, T/C: 63.3%
[26]
  viability, T/C: 51.1%
[27]
  viability, T/C: 50.8%
[28]
  viability, T/C: 53.6%
[29]
  viability, T/C: 19.6%
[30]
  viability, T/C: 0.18%
[31]
  viability, T/C: 54.4%
[32]
  viability, T/C: 45.2%
[33]
  viability, T/C: 50%
[34]
  viability, T/C: 43.9%
[35]
  viability, T/C: 16%
[36]
  viability, T/C: 0.24%

## C=CC(=O)N1CCN(c2nc(=O)n(-c3c(C)ccnc3C(C)C)c3nc(-c4c(O)cccc4F)c(F)cc23)C(C)C1 (stereo not given) + CNC(=O)c1ccc(Nc2nc(OC3CCCC3)c3c(-c4ccc5nc(C)oc5c4)c[nH]c3n2)c(OC)c1
Second compound 0.0316 µM
  pIC50: < 5.00
Second compound 0.1 µM
  pIC50: < 5.00
Second compound 0.316 µM
  pIC50: < 5.00
Second compound 1 µM
  pIC50: < 5.00
Second compound 3.16 µM
  pIC50: < 5.00
Second compound 10 µM
  pIC50: < 5.00
[1]
  viability, T/C: 104%
[2]
  viability, T/C: 94%
[3]
  viability, T/C: 120%
[4]
  viability, T/C: 128%
[5]
  viability, T/C: 89%
[6]
  viability, T/C: 73.9%
[7]
  viability, T/C: 101%
[8]
  viability, T/C: 115%
[9]
  viability, T/C: 87.7%
[10]
  viability, T/C: 104%
[11]
  viability, T/C: 88.1%
[12]
  viability, T/C: 70.9%
[13]
  viability, T/C: 95.7%
[14]
  viability, T/C: 92%
[15]
  viability, T/C: 74.3%
[16]
  viability, T/C: 87.1%
[17]
  viability, T/C: 71.1%
[18]
  viability, T/C: 67.3%
[19]
  viability, T/C: 79.3%
[20]
  viability, T/C: 68.1%
[21]
  viability, T/C: 72.5%
[22]
  viability, T/C: 69.6%
[23]
  viability, T/C: 70.7%
[24]
  viability, T/C: 57.2%
[25]
  viability, T/C: 60.5%
[26]
  viability, T/C: 52.6%
[27]
  viability, T/C: 52.9%
[28]
  viability, T/C: 56.4%
[29]
  viability, T/C: 58.1%
[30]
  viability, T/C: 54.8%
[31]
  viability, T/C: 54.5%
[32]
  viability, T/C: 53.6%
[33]
  viability, T/C: 58.8%
[34]
  viability, T/C: 53%
[35]
  viability, T/C: 53.6%
[36]
  viability, T/C: 51.8%

## CCCS(=O)(=O)Nc1ccc(F)c(C(=O)c2c[nH]c3ncc(-c4ccc(Cl)cc4)cc23)c1F + CNC(=O)c1ccc(Nc2nc(OC3CCCC3)c3c(-c4ccc5nc(C)oc5c4)c[nH]c3n2)c(OC)c1
Second compound 0.0316 µM
  pIC50: 5.23
Second compound 0.1 µM
  pIC50: 5.27
Second compound 0.316 µM
  pIC50: 5.41
Second compound 1 µM
  pIC50: 5.67
Second compound 3.16 µM
  pIC50: 6.42
Second compound 10 µM
  pIC50: > 7.50
[1]
  viability, T/C: 89.8%
[2]
  viability, T/C: 99.1%
[3]
  viability, T/C: 86.6%
[4]
  viability, T/C: 125%
[5]
  viability, T/C: 104%
[6]
  viability, T/C: 7.61%
[7]
  viability, T/C: 82.2%
[8]
  viability, T/C: 92.3%
[9]
  viability, T/C: 88.2%
[10]
  viability, T/C: 76.7%
[11]
  viability, T/C: 87.9%
[12]
  viability, T/C: 6.61%
[13]
  viability, T/C: 74.5%
[14]
  viability, T/C: 81.1%
[15]
  viability, T/C: 59.9%
[16]
  viability, T/C: 63.1%
[17]
  viability, T/C: 61.3%
[18]
  viability, T/C: 10.2%
[19]
  viability, T/C: 75.2%
[20]
  viability, T/C: 63.2%
[21]
  viability, T/C: 66.7%
[22]
  viability, T/C: 64.8%
[23]
  viability, T/C: 42.6%
[24]
  viability, T/C: 11.8%
[25]
  viability, T/C: 54.9%
[26]
  viability, T/C: 50.6%
[27]
  viability, T/C: 50.2%
[28]
  viability, T/C: 44.6%
[29]
  viability, T/C: 26.5%
[30]
  viability, T/C: 16.4%
[31]
  viability, T/C: 49.2%
[32]
  viability, T/C: 47%
[33]
  viability, T/C: 53%
[34]
  viability, T/C: 47%
[35]
  viability, T/C: 30.1%
[36]
  viability, T/C: 17.9%

## COC1C=CCC(C)C(C)S(=O)(=O)NC(=O)c2ccc3c(c2)N(CC2CCC21)CC1(CCCc2cc(Cl)ccc21)CO3 (stereo not given) + CNC(=O)c1ccc(Nc2nc(OC3CCCC3)c3c(-c4ccc5nc(C)oc5c4)c[nH]c3n2)c(OC)c1
Second compound 0.0316 µM
  pIC50: 5.28
Second compound 0.1 µM
  pIC50: 5.21
Second compound 0.316 µM
  pIC50: 6.39
Second compound 1 µM
  pIC50: 6.86
Second compound 3.16 µM
  pIC50: > 7.50
Second compound 10 µM
  pIC50: > 7.50
[1]
  viability, T/C: 95.8%
[2]
  viability, T/C: 91.9%
[3]
  viability, T/C: 72%
[4]
  viability, T/C: 84.9%
[5]
  viability, T/C: 67.5%
[6]
  viability, T/C: 29.1%
[7]
  viability, T/C: 94.7%
[8]
  viability, T/C: 74.8%
[9]
  viability, T/C: 65.4%
[10]
  viability, T/C: 84.3%
[11]
  viability, T/C: 91.4%
[12]
  viability, T/C: 26.8%
[13]
  viability, T/C: 84.9%
[14]
  viability, T/C: 64.7%
[15]
  viability, T/C: 50.6%
[16]
  viability, T/C: 42.3%
[17]
  viability, T/C: 39.1%
[18]
  viability, T/C: 25.9%
[19]
  viability, T/C: 64.9%
[20]
  viability, T/C: 55.3%
[21]
  viability, T/C: 38.5%
[22]
  viability, T/C: 29.1%
[23]
  viability, T/C: 25.6%
[24]
  viability, T/C: 19.6%
[25]
  viability, T/C: 49.6%
[26]
  viability, T/C: 40.1%
[27]
  viability, T/C: 30.7%
[28]
  viability, T/C: 20.8%
[29]
  viability, T/C: 18.1%
[30]
  viability, T/C: 14.2%
[31]
  viability, T/C: 42.9%
[32]
  viability, T/C: 41.2%
[33]
  viability, T/C: 30.8%
[34]
  viability, T/C: 18.3%
[35]
  viability, T/C: 13.5%
[36]
  viability, T/C: 12.1%
